In PMC8191290, “Substrate specificities and reaction kinetics of the yeast oligosaccharyltransferase isoforms” (The Journal of Biological Chemistry, 2021):
The star is where a group is joined. 5‑TAMRA = CN(C)c1ccc2c(-c3ccc(C(=O)*)cc3C(=O)[O-])c3ccc(N(C)C)cc3[o+]c2c1

Legend:
[1] = biological target: T1, OST3 complex (Saccharomyces cerevisiae, UniProt P39007); assay: Turnover of synthetic TAMRA-labeled peptides; type: biochemical; settings: 0.5 µM OST3 complex, 20 µM peptide
T1 construct: were purified separately from strains expressing only one type of complex; made in house; host or cells: Saccharomyces cerevisiae, BY4742-derived strain ost6::LEU2MX6 OST4-1D4::kanMX6 YEp352-OST3
Experimental: TAMRA-labeled peptides with 5-TAMRA at the N-terminus and an amide group at the C-terminus were synthesized by WatsonBio Sciences. Unlabeled peptides (Table S1) were synthesized by Genscript Corp. and were designed so that the asparagine of the glycosylation sequon was in the middle (except for Peptide 8). Lyophilized peptides were dissolved in dimethyl sulfoxide (DMSO), unless specified otherwise, to a 3 mM stock solution and further diluted in ddH2O for reactions.
(§1) Reactions were performed in a total volume of 10 μl containing the specified amount of TAMRA-labeled peptide, synthetic LLO analog, 10 mM MnCl2, and purified OST after size-exclusion chromatography in purification buffer (50 mM Hepes, pH 7.5, 150 mM NaCl, 1 mM MgCl2, 1 mM MnCl2, 10% (v/v) glycerol, 0.03% (w/v) DDM, and 0.006% (w/v) CHS). The concentration of OST was calculated using the molecular weight of 280 kDa. The reaction mixture was preincubated at 30 °C for 5 min before adding the peptide to start the reaction that proceeded at 30 °C. Time points were taken such that the reaction was in the linear phase. At each time point, 1 μl reaction mixture was taken and the reaction was stopped by dilution in stop solution (0.1% FA in 10% ACN, 10 mM KPO4 pH 8.0) such that the final peptide concentration was 2 μM.
(§2) Samples were analyzed by reverse-phase chromatography using a UPLC Dionex UltiMate 3000 with an Accucore 150-C18 100 × 2.1 mm 2.6 μm column (Thermo Fisher Scientific). One microliter sample (2 pmol of peptide) was injected and measured by isocratic elution using a certain proportion of ACN (15% ACN for peptide TAMRA-DANYTK; 20% ACN for peptide TAMRA-YANATS) in 10 mM KPO4, pH 8.0 buffer so that the glycopeptide and peptide are fully separated and elute within 3 min at a constant flow rate of 0.7 ml/min, with a column temperature of 45 °C. The peptide and glycopeptide were detected through TAMRA fluorescence (excitation wavelength: 546 nm; emission wavelength: 579 nm).
The UPLC profiles were analyzed by integrating the peaks corresponding to the glycopeptide and peptide using Chromeleon 7 (Dionex) and calculating the amount of glycopeptide formed using the following equation, as previously described ([43]): [GP]=PeakareaGP/PeakareaP+PeakareaGP×[P] […]
Supp. Table 2. Turnover of synthetic TAMRA-labeled peptides
Peptide Glycopeptide Turnover after 5 min Relative turnover […]
TAMRA, tetramethylrhodamine
Turnover of TAMRA-labeled peptides after 5 min was determined using 0.5 µM OST3 complex, 20 µM indicated peptide and 150 µM LLO C20. Relative turnover compared to TAMRA-DANYTK is given by defining TAMRA-DANYTK turnover as 100 %.

[2] = biological target: T1, OST3 complex; assay: In vitro glycosylation assay, kinetic parameters for synthetic LLOs, OST3 complex; type: biochemical; settings: OST3 complex, under the tested conditions
Description: Synthetic LLO substrates all have two GlcNAcs as the sugar moiety, followed by pyrophosphate and lipid moieties (−R) of variable stereochemistry and length, denoted by the carbon chain length. C10, (S)-citronellyl; C15, farnesyl; C20, (S)-citronellylneryl; C25, (S)-citronellylfarnesyl; C90, represents the natural yeast dolichol lipid tail structure where n = 15. Figure modified from Ramirez et al. 2017 ([42]). B, quantification of kinetic parameters for the synthetic LLOs. Reactions were performed with 0.1 μM purified OST3 complex, 25 μM peptide TAMRA-YANATS, and varying concentrations of the different synthetic LLOs. Glycopeptide product was measured by UPLC and turnover rates were determined from the linear initial phase of the reaction. The mean of three reactions is shown and the data were fitted by nonlinear regression according to the Michaelis–Menten formula (R^2 = 0.9842 (LLO C15), 0.9685 (LLO C20), 0.9261 (LLO C25)) using Prism. Error bars indicate standard deviations from the mean (n = 3).
(§3) Concentrations of reactive LLO analogs were determined by in vitro glycosylation (see below) by titrating varying amounts of LLO against a known amount of fluorescently labeled peptide. Concentrations of nonreactive LLO analogs were determined by in vitro glycosylation by titrating varying amounts of nonreactive LLO while using known amounts of both fluorescently labeled peptide and active LLO analog.
as §1, with “At each time point, 1 μl reaction mixture was taken and the reaction was stopped by dilution in stop solution (0.1% FA in 10% ACN, 10 mM KPO4 pH 8.0) such that the final peptide concentration was 2 μM.” left out
as §2
The UPLC profiles were analyzed by integrating the peaks corresponding to the glycopeptide and peptide using Chromeleon 7 (Dionex) and calculating the amount of glycopeptide formed using the following equation, as previously described ([43]): [GP]=PeakareaGP/PeakareaP+PeakareaGP×[P]
[GP] is the concentration of glycopeptide, Peak areaGP/P is the area under the curves measured for the glycopeptide or peptide, respectively, and [P] is the concentration of peptide at the start of the reaction. […] Unless specified otherwise, turnover rates were determined from the initial rates of reaction by taking into account the enzyme concentration in the reaction. […]

[3] = system: yeast OST3 complex; assay: Inhibition of OST activity by nonhydrolyzable LLO analogs; type: biochemical, Saccharomyces cerevisiae; settings: for IC50: 0.1 μM purified OST3 complex, 25 μM TAMRA-YANATS, 50 μM LLO C20, inhibitor 2.5–2000 μM (Ia) or 2.5–3000 μM (Ib), 30 °C, read-out: IC50 (apparent)
Description: Figure 4 Inhibition of yeast OST activity by synthetic nonhydrolyzable LLOs in vitro.A, structure of synthetic nonhydrolyzable LLOs. Synthetic nonreactive LLOs have two GlcNAcs as the sugar moiety, followed by pyrophosphonate and lipid moieties of variable stereochemistry and length, denoted by the carbon chain length. Ia, GlcNAc2-(OH)CPP-(S)-citronellylneryl (C20); Ib, GlcNAc2-CPP-(S)-citronellylfarnesyl (C25). Note that Ia is a hydroxy-phosphonate (with an additional OH group, single diastereomer, R/S configuration unassigned), while Ib is a phosphonate without an additional hydroxyl group. Figure modified from Ramirez et al. 2017 ([42]). B, quantification of inhibition by nonhydrolyzable LLOs shown in A. Reactions were performed with 0.1 μM purified OST3 complex, 25 μM peptide TAMRA-YANATS, 50 μM LLO C20, and varying concentrations of the different synthetic inhibitory LLOs. Glycopeptide product was measured by UPLC and turnover rates were determined from the linear initial phase of the reaction. % inhibition was determined relative to a control reaction without nonhydrolyzable LLOs. […]
as §3
Reactions were performed in a total volume of 10 μl containing the specified amount of TAMRA-labeled peptide, synthetic LLO analog, 10 mM MnCl2, and purified OST after size-exclusion chromatography in purification buffer (50 mM Hepes, pH 7.5, 150 mM NaCl, 1 mM MgCl2, 1 mM MnCl2, 10% (v/v) glycerol, 0.03% (w/v) DDM, and 0.006% (w/v) CHS). The concentration of OST was calculated using the molecular weight of 280 kDa. […]
(§4) Samples were analyzed by reverse-phase chromatography using a UPLC Dionex UltiMate 3000 with an Accucore 150-C18 100 × 2.1 mm 2.6 μm column (Thermo Fisher Scientific). […]

[4] = biological target: T1, OST3 complex; assay: Peptide competition assay (unlabeled peptide vs TAMRA-DANYTK); type: biochemical; settings: 0.4 μM purified OST3 complex, 150 μM LLO C20, 25 μM TAMRA-DANYTK, 25 μM unlabeled competitor peptide, 30 min, relative to control without competitor
Experimental: Figure 2 In vitro glycosylation assay for OST activity and peptide sequence preferences.A, schematic representation of the in vitro reaction setup for yeast OST activity. The peptide substrate containing the glycosylation sequon N-X-(S/T) is labeled with the TAMRA fluorophore at the N-terminus. Incubation with OST, synthetic LLO, and a divalent metal ion (Mn^2+preferred) results in the transfer of the sugar moiety (two GlcNAcs, blue squares) from the LLO to the fluorescently labeled peptide, yielding a glycopeptide product. […] The glycopeptide elutes earlier than the peptide and amounts of glycopeptide are quantified at different reaction time points by peak integration. C, quantification of kinetic parameters for synthetic peptide TAMRA-DANYTK. […] Glycopeptide product was measured by UPLC and turnover rates were determined by linear regression of the initial phase of the reaction and taking into account the enzyme concentration. […] E, quantification of kinetic parameters for synthetic peptide TAMRA-YANATS. […] Turnover rates were determined as in C. […]
as §4

[5] = system: TbStt3A; settings: reported for TbStt3A, compound 34d; ref [42]; cited from earlier work
Description: The nonreactive LLO analogs Ia and Ib had the same disaccharide and lipid structures as the reactive LLO substrates LLO C20 and LLO C25, respectively. However, they differed from their reactive counterpar ...

[6] = biological target: Ost3p-containing yeast oligosaccharyltransferase complex (S. cerevisiae) (UniProt P41543)
[7] = biological target: Ost6p-containing yeast oligosaccharyltransferase complex (S. cerevisiae) (UniProt P41543)

In the case of “TAMRA-ADTYANATSDVL [TAMRA-labeled Peptide 5]”, the “Turnover after 5 min” value ([1]; 150 µM LLO C20) is reported as 10%, the Glycopeptide detected ([1]; 150 µM LLO C20, 5 min) is reported as “Yes” and the Relative turnover ([1]; TAMRA-DANYTK turnover defined as 100 %, 5 min, 150 µM LLO C20) is reported as 167%.

With CC(=O)NC1C(OC2C(CO)OC(OP(=O)(O)OP(=O)(O)OCCC(C)CCC=C(C)C)C(NC(C)=O)C2O)OC(CO)C(O)C1O (stereo not drawn) [LLO C10] the “activity as LLO substrate” value [2] was “no detectable activity”.

With “GlcNAc2-(OH)CPP-(S)-citronellylneryl [Ia]” the IC50 [3] was 44 µM and the “relative inhibitory potency, in words” value ([3]; OST3 complex) was “more potent inhibitor of the yeast OST3 complex than Ib”.

In the case of ADTYANATSDVL [Peptide 5], the “% inhibition of TAMRA-DANYTK glycopeptide formation” value [4] is reported as 50%.

For “GlcNAc2-CPP-(S)-citronellylfarnesyl [Ib]”, the IC50 [3] is listed as 198 µM and the IC50 [5] is listed as 26 ± 3 µM.

B1: TAMRA-DANYTK-NH2 (peptide)
peptide: {5‑TAMRA}-DANYTK-NH2
SMILES: C[C@H](NC(=O)[C@H](CC(=O)O)NC(=O)c1ccc(-c2c3ccc(N(C)C)cc3[o+]c3cc(N(C)C)ccc23)c(C(=O)[O-])c1)C(=O)N[C@@H](CC(N)=O)C(=O)N[C@@H](Cc1ccc(O)cc1)C(=O)N[C@H](C(=O)N[C@@H](CCCCN)C(N)=O)[C@@H](C)O
With B1 the apparent KM of the peptide in the in vitro glycosylation assay (Michaelis-Menten fit; about 1 μM OST3 complex, 150 μM LLO C20, 10-400 μM peptide, 30 °C) [6] was 201 µM.

B2: TAMRA-YANATS (peptide)
peptide: {5‑TAMRA}-YANATS-NH2
SMILES: C[C@H](NC(=O)[C@H](Cc1ccc(O)cc1)NC(=O)c1ccc(-c2c3ccc(N(C)C)cc3[o+]c3cc(N(C)C)ccc23)c(C(=O)[O-])c1)C(=O)N[C@@H](CC(N)=O)C(=O)N[C@@H](C)C(=O)N[C@H](C(=O)N[C@@H](CO)C(N)=O)[C@@H](C)O
Work on B2 yielded an apparent KM of the peptide in the in vitro glycosylation assay (Michaelis-Menten fit; 0.1 μM OST3 complex, 100 μM LLO C20, 10-500 μM peptide, 30 °C) [6] of 55.6 µM and an apparent KM of the peptide in the in vitro glycosylation assay (Michaelis-Menten fit; 0.1 μM OST6 complex, 100 μM LLO C20, varying peptide, 30 °C) [7] of 44.8 µM.
